# Source: a melting point compilation (Tetko et al.; mined from patent text by program, amines drawn as free bases though some values may be those of a salt)
row,Structure (SMILES),melting point [°C]
1,O=S(=O)(c1ccccc1)N1CCNc2ncc(I)cc21,145 to 146
2,C[C@@H](N(CC(=O)O)C(=O)c1ccc(OC(F)(F)F)cc1)[C@](O)(Cn1cncn1)c1ccc(F)cc1F (relative stereo),99 to 105
3,COc1ccc(S/C(=C/C(=O)NO)CCCCc2ccccc2)cc1OC,148 to 150
4,COc1nc(C)c2c(c1C#N)CCCC2=O,128
5,Fc1cc(F)cc(C=Cc2cc3cc4ccccc4cc3s2)c1,265 to 267
6,COC(=O)c1ccc(OC)c(C=O)c1,98 to 102
7,O=C(NCc1ccc2c(c1)OCO2)c1ccc2n1Cc1ccccc1N(C(=O)COc1ccc(Cl)cc1)C2,168 to 169
8,C=C(c1cn(-c2c(Cl)cc(C(F)(F)F)cc2Cl)nc1C#N)C(F)(F)Cl,113 to 114
9,CC(=O)NC(Cc1ccc([N+](=O)[O-])cc1)C(=O)O (stereo unspecified),165 to 166
10,O=C(Nc1cc2ncc(CN3CCCC3)cc2cc1F)c1ccc(-c2ccccc2)cc1,206 to 208
11,Cc1nc(-c2ccc3c(c2)CCCC3)c(C(=O)O)o1,183 to 185
12,Nc1ccc(C(=O)N2CCC(c3[nH]nc4c3C(=O)c3c(NC(=O)NN5CCOCC5)cccc3-4)CC2)cc1,198 to 200
13,CN1CCN(c2c(F)c(NCc3ccccc3)c3c(=O)c(C(=O)O)cn(C4CC4)c3c2F)CC1,132 to 133
14,COc1cc(OC)cc(Oc2ccc(C(=O)N(C(C)C)C3CCCCC3)cc2)c1,140
15,O=C(c1ccc([N+](=O)[O-])cc1)N1CCCc2ccccc21,86 to 88
16,Cc1c([N+](=O)[O-])c(=O)n(-c2cc(C(=O)OC(C)C)c(Cl)cc2F)c(=O)n1C,129 to 131
17,Cc1ccc(OCC(O)CNC(C)(C)C)c([N+](=O)[O-])c1[N+](=O)[O-] (stereo unspecified),104 to 106
18,CC1=Nc2ccccc2CC(c2ccsc2C)N1C (stereo unspecified),91 to 92
19,C=C1COc2ccc(C(C)=O)cc2C(Cc2ccccc2)(S(=O)(=O)c2ccccc2)C1 (stereo unspecified),131 to 132
20,CCCOc1cc(C)c2cc(Cn3ccnc3)ccc2n1,138
21,Cc1ccc(Sc2cc([N+](=O)[O-])cc3c2C(=O)OC3=O)cc1,180 to 182

row,Structure (SMILES),melting point [°C]
1,COc1cccc2c3c(c(=O)[nH]c12)CCN3c1ccccc1C,166 to 168
2,C=CCCCCCCOc1ccc(C(CC(C(=O)OCC)C(=O)OCC)NC(C)=O)cc1 (stereo unspecified),50 to 53
3,CC(C)(C)C(=O)CC(=O)c1cccc(C(=O)CC(=O)C(C)(C)C)c1,106 to 108
4,Cc1cnc2c(c1C)CCCC2C(N)=S (stereo unspecified),163 to 165
5,Cc1cccnc1-n1c(C)nc2ccccc2c1=O,135 to 137
6,COc1ccc(C(O)c2ccccc2)cc1OC1CCCC1 (stereo unspecified),82.5 to 83
7,COC(=O)CCn1c(=O)n(CCN2CCN(c3cccc(C(F)(F)F)c3)CC2)c(=O)c2cscc21,87 to 88
8,Cc1c(F)c(N2CCC(n3ccnn3)C2)c(F)c2c1c(=O)c(C(=O)O)cn2C1CC1 (stereo unspecified),228 to 230
9,CCN1c2ncccc2C(=O)N(C)c2cccnc21,130 to 132
10,CCN(CC)C(=O)C1CCCN(C(=O)CN(C(=O)CNC(=O)Nc2cccc(C)c2)c2ccccc2)C1 (racemic),156
11,CCC1(C)CC(=O)C(C(=O)Nc2cccc(C(F)(F)F)c2)C(=O)C1 (stereo unspecified),81 to 82
12,CC(=O)Cc1ccccc1Br,60 to 65
13,Cc1ncn(C)c1-c1nc(C2CC2)no1,88
14,CC(=O)NC1CCC2=C(CC1)C(=O)CC=C2 (stereo unspecified),115 to 116
15,CN(C)C=NC(=N[N+](=O)[O-])N(C)Cc1ccc(Cl)nc1,85 to 89
16,COc1cc(C=O)c(F)cc1Cl,120 to 122
17,N#Cc1nc(Cl)ccc1N,162 to 165
18,CCCCC(=O)C(Cc1ccc(C(=O)OC)cc1)c1ccccc1 (stereo unspecified),58
19,Cc1c(NC(=O)OCc2ccccc2)cccc1C(C[N+](=O)[O-])c1c[nH]c2cc(N3CCOCC3)ccc12 (stereo unspecified),137
20,O=C(Nc1ccccc1)N1CCc2[nH]c3c(cnc4cc(Cl)ccc43)c2C1,> 260
21,"CCCC(=O)NCCC1CCc2cc(OC)ccc21 (single isomer, unassigned; (-))",79 to 80

row,Structure (SMILES),melting point [°C]
1,CCC1N=C(c2ccccc2Cl)c2cc(CCC(=O)OC)sc2NC1=S (stereo unspecified),173 to 176
2,NCCN1CCC(=C2c3ccccc3C=Cc3ccccc32)CC1,102
3,O=C1[C@H](CC[C@H](O)c2ccc(F)cc2)[C@@H](c2ccc(OS(=O)(=O)C(F)(F)F)cc2)N1c1ccc(F)cc1,122
4,CNC(=O)N(O)C(C)c1ccc(OC)cc1 (stereo unspecified),102 to 104
5,c1cnc(NC2CCN(C3CCCC3)CC2)nc1,118
6,CCc1ccc(N)c(CS(=O)c2nc3ccccc3[nH]2)c1 (stereo unspecified),155 to 156
7,CCCCCCCCCCCCCCOC(=O)CCCCc1cc(OC(C)=O)c(OC(C)=O)c([N+](=O)[O-])c1,46 to 47
8,COc1cc(Cl)nc(NC(=O)NS(=O)(=O)C(C)S(=O)(=O)N2CCCC2)n1 (stereo unspecified),158 to 160
9,NS(=O)(=O)c1ccc(S(=O)(=O)CCCO)c(C(=O)O)c1,170
10,Cn1c(N2CC3CC2CN3C(=O)OC(C)(C)C)nc(-c2ccncn2)cc1=O (stereo unspecified),198 to 200
11,COc1cc(O)cc(-c2cc3ccc(O)cc3o2)c1CC=C(C)C,93 to 94
12,COc1ccc(-c2cc3cc(OC)cc(C(C)(C)C#N)c3o2)cc1,146 to 148
13,O=C(C=Cc1ccccc1S(=O)(=O)Nc1ccccc1)NO,205 to 206
14,CC(=O)Nc1cccc(C=Cc2nc3c(c(=O)n(C)c(=O)n3C)n2C)c1,> 300
15,COC(=O)c1ccc(C(=O)Nc2cc3c4c(c2)CCCC4CCC3)cc1,217 to 218
16,Cc1ccc(F)cc1C(=O)Nc1ccc(C(=O)N2CCc3cn[nH]c3-c3sccc32)cc1,310 to 312
17,Cn1cc2c(O)cc(-c3ccc(Cl)cc3)nc2n1,302 to 305
18,Cc1c(C(=O)O)cnn1-c1cc(Cl)cc(Cl)c1,229 to 230
19,N#CC(c1ccccc1)C1CCN(c2ccc([N+](=O)[O-])cc2)CC1 (stereo unspecified),118
20,Cn1nc(Sc2ccc(C(=O)OCC(C)(C)C)c(Cl)c2)n(C)c1=O,101
21,CS(=O)(=O)OCCC1c2ccccc2COc2ccccc21 (stereo unspecified),64 to 66

# The next lines start with the values.
row,melting point [°C],Structure (SMILES)
1,130 to 134,CC12CCCC1C1=CCc3cc(O)ccc3C1CC2 (stereo unspecified)
2,100 to 102,COc1cccc(Cc2cc(-c3ccccc3)c(-c3ccccc3)s2)c1
3,82.7 to 83.4,Cc1ccc(C2=NCCc3c(Cl)cccc32)cc1
4,138 to 140,CCOC(=O)c1c(CBr)cccc1S(N)(=O)=O
5,95 to 96,COc1cc(COc2nn(-c3ccccc3)cc2CC2=NCCO2)ccc1OCc1nc(-c2ccco2)oc1C
6,90 to 91,COc1ccc2cc(C(=O)[C@H](C)Br)ccc2c1
7,112 to 113,CCCCCCCCCCCCCCOc1ccc(C(=O)O)cc1OCCCCCCCCCCCCCC
8,183 to 184,Cc1ccccc1-c1ccc(C(=O)N2Cc3ccc(C(=O)NCCCc4ccccc4)n3Cc3ccccc32)cc1C
9,287 to 289,O=C(Oc1ccc(Cl)cn1)c1cc2cc([N+](=O)[O-])ccc2oc1=O
10,59 to 61,COC(=O)CCc1ccc(O)c(C(C)(C)C)c1
11,155 to 157,CCc1ccc2c(Cc3nc4c(F)c(F)cc(F)c4s3)cn(CC(=O)O)c2n1
12,245 to 247,O=CNc1[nH]c(-c2ccc(F)cc2)nc1-c1ccccc1
13,120 to 122,CCC(O)(c1cc(F)cc(Sc2ccc3c(-c4ccoc4)cc(C#N)cc3c2)c1)c1nccs1 (stereo unspecified)
14,80 to 81,COC(=O)c1ccc(-n2cc3ccccc3n2)cc1
15,68 to 72,CC(=O)OC1CSC(Oc2cccnc2-c2c(C)noc2C)C(OC(C)=O)C1OC(C)=O (stereo unspecified)
16,118 to 120,O=C(OCc1ccccc1)c1ccc(OCc2ccccc2)cc1OCc1ccccc1
17,68,c1ccc(-n2c(-c3cccc(OCCN4CCCCC4)c3)nc3ccccc32)cc1
18,78 to 79,COC(=O)Cc1cnc(-c2ccccc2)n1Cc1ccccc1
19,110 to 113,OC(=S)CCC1CCN(Cc2ccc3c(c2)Nc2nccnc2S3)CC1

row,melting point [°C],Structure (SMILES)
1,45 to 46,CCOC(=O)C(=CNc1ccccc1)C(=O)OCC
2,152 to 153,O=C(O)CCc1cn(Cc2ccc3cc(OCc4ccccc4F)ccc3c2)nc1-c1ccccc1
3,128 to 130,COc1cc(C)c(C=CC(C)=CC=CC(C)=CCO)c(C)c1C
4,199 to 204,N#Cc1cnn(-c2ccc(Cl)cc2Cl)c1NN
5,83 to 84,CN(CCO)c1ccc([N+](=O)[O-])cn1
6,278 to 281,Cc1nc(=O)[nH]c2ccc(N(C)C)cc12
7,153,NC(=O)C=Cc1cccs1
8,150 to 151,CC(C)(C)C1CCC(C(=O)Nc2ccncc2)CC1 (stereo unspecified)
9,154 to 155,CC(C)(C)C(S)(CC#N)C(C)(C)C
10,170 to 172,CCCCC(=O)OC1(C(C)=O)C(C)CC2C3CCC4=CC(=O)C=CC4(C)C3(Cl)C(Cl)CC21C (stereo unspecified)
11,> 250,CCc1cc(=O)n(-c2cc3[nH]c(=O)sc3cc2F)c(=O)n1C
12,135 to 141,Cn1nc(-c2ccccc2)c(S(=O)(=O)c2ccccc2)c1-c1ccccc1
13,110 to 112,CCCCCCNc1ccccc1CC(=O)Nc1c(C(C)C)cccc1C(C)C
14,120 to 121,COC(=O)c1c(Oc2ccc(Cl)cc2[N+](=O)[O-])c2ccccc2n1Cc1ccccc1
15,168 to 172,O=C(C=C(S)c1ccccc1)Nc1nc2ccccc2s1
16,202,COc1ccc(Cl)cc1C(=O)NCC1CCOc2cc(OC)c(S(N)(=O)=O)cc21 (stereo unspecified)
17,142 to 145,NC(=O)CCN1C(=O)C(=O)c2cc(F)ccc21
18,300 to 305,O=C(O)c1ccc2cc(-c3cc4c(c(C56CC7CC(CC(C7)C5)C6)c3)OCO4)ccc2c1
19,144 to 147,COc1cc(C(C)C(=O)O)cc2ccc3ccccc3c(=O)c12 (stereo unspecified)
